# Tests used:
# B. tabaci white gene = experiment: Knockout of the B. tabaci white gene by ReMOT Control (adult female injection); type: in vivo, Bemisia tabaci; conditions: BtKV as the targeting peptide
# Experimental: The females were injected and placed on a piece of soybean leaflet in a petri dish with a moist paper towel wrapped around the stem and another paper towel on the bottom plate to prolong the life of the leaflet. Water and liquid fertilizer were added as needed. Females were removed from the leaflet 2 weeks post injection. The petri dishes were incubated at 28° C., 16L/8D cycle, in a humidified Heratherm IMH750-S reach-in chamber, and the progeny of injected females screened visually for altered eye color in nymphs or adults using an Olympus SZX7 stereomicroscope. Mutations in insects showing altered eye color were confirmed by PCR using PHIRE Tissue Direct PCR Master Mix (Thermo Fischer Scientific), the amplicon was cloned into pJET1.2, and clones were submitted for Sanger sequencing.
# For proof of principle gene editing experiments, we chose the white gene, which is an ABC transporter protein responsible for transport of ommochrome pigments into the eyes.
# B. tabaci ovaries = experiment: Validation of the BtKV ovary targeting ligand (epifluorescence of dissected ovaries); type: in vivo, Bemisia tabaci; conditions: ovaries dissected 24 hours post-injection; vs PBS-injected controls
# Experimental: For initial experiments B. tabaci adults of unknown age and mating status were aspirated from the colony cage into 2-dram screw cap vials, placed in ice to anesthetize the insects, sexed, and transferred to a standard plain glass slide with double-sided tape on a chill table. For later experiments we established a synchronous colony so that we could control for the age of injected insects (see below). For localization of BtKV fusion protein into the embryos, female B. tabaci were injected in the abdomen with BtKV-mCherry fusion protein (3 mg/ml) or PBS control using quartz capillary needles. Samples were collected 24 hours post injection and ovaries dissected onto a concavity microscope slide with a glass coverslip and imaged by epifluorescence microscopy.
# We therefore designed a new targeting peptide suitable for this insect species based on its endogenous vitellogenin protein (“BtKV”; […] (SEQ ID NO: 30)) (see methods). B. tabaci oocyte development is asynchronous with stage I, II, III, and IV at 11 days post eclosion or older^19 where oocytes are always developing. Developmental phase II oocytes have the highest amount of vitellogenin uptake via endocytosis and nutrient cord^19. After injection of BtKV-mCherry into reproductive adult B. tabaci females, ovaries were dissected after 24 hours and visualized for red fluorescence.
sequence,measurement,setting,value
KPYGVYKTMEDSV (listed as Bemisia tabaci) [BtKV],independent replicate injection experiments from which white-eye nymphal offspring were recovered,B. tabaci white gene,7 of 14
same,fluorescent cargo in oocytes,B. tabaci ovaries,visible in dissected mature oocytes

# — patent publication US12391962B2, “Targeting peptide to deliver a compound to oocytes” (THE PENN STATE RESEARCH FOUNDATION, priority 2017, dated 2025)
